Legend:
Conditions in all cases: 72 h
Vero E6 [1] = assay: drug sensitivity score (DSS) for viability; higher = more toxic; extreme values may be limits of the assay
U2OS [2] = assay: as above
Caco-2 [3] = assay: as above
Calu-3 [4] = assay: as above
HepG2 [5] = assay: as above
Vero E6 [6] = assay: cell viability relative to DMSO; higher = less toxic
U2OS [7] = assay: as above
Caco-2 [8] = assay: as above
Calu-3 [9] = assay: as above
HepG2 [10] = assay: as above
Vero E6 [11] = assay: relative viability EC50 (midpoint between 100% and the lowest measured viability); higher = less toxic
U2OS [12] = assay: as above
Caco-2 [13] = assay: as above
Calu-3 [14] = assay: as above
HepG2 [15] = assay: as above

SMILES	drug sensitivity score (Vero E6 [1])	drug sensitivity score (U2OS [2])	drug sensitivity score (Caco-2 [3])	drug sensitivity score (Calu-3 [4])	drug sensitivity score (HepG2 [5])	cell viability (Vero E6 [6]; 1 nM)	cell viability (Vero E6 [6]; 10 nM)	cell viability (Vero E6 [6]; 100 nM)	cell viability (Vero E6 [6]; 1000 nM)	cell viability (Vero E6 [6]; 10000 nM)	cell viability (U2OS [7]; 1 nM)	cell viability (U2OS [7]; 10 nM)	cell viability (U2OS [7]; 100 nM)	cell viability (U2OS [7]; 1000 nM)	cell viability (U2OS [7]; 10000 nM)	cell viability (Caco-2 [8]; 1 nM)	cell viability (Caco-2 [8]; 10 nM)	cell viability (Caco-2 [8]; 100 nM)	cell viability (Caco-2 [8]; 1000 nM)	cell viability (Caco-2 [8]; 10000 nM)	cell viability (Calu-3 [9]; 1 nM)	cell viability (Calu-3 [9]; 10 nM)	cell viability (Calu-3 [9]; 100 nM)	cell viability (Calu-3 [9]; 1000 nM)	cell viability (Calu-3 [9]; 10000 nM)	cell viability (HepG2 [10]; 1 nM)	cell viability (HepG2 [10]; 10 nM)	cell viability (HepG2 [10]; 100 nM)	cell viability (HepG2 [10]; 1000 nM)	cell viability (HepG2 [10]; 10000 nM)	relative viability EC50 (Vero E6 [11])	relative viability EC50 (U2OS [12])	relative viability EC50 (Caco-2 [13])	relative viability EC50 (Calu-3 [14])	relative viability EC50 (HepG2 [15])
CCOc1cc2ncc(C#N)c(Nc3ccc(OCc4ccccn4)c(Cl)c3)c2cc1NC(=O)/C=C/CN(C)C [neratinib]	8.7	1.8	10.3	22.8	7.5	104%	102%	90.9%	64.1%	17.5%	93.6%	96.7%	96.7%	88%	75.7%	98.7%	93.4%	85.1%	54.7%	35%	93.4%	69.6%	43.9%	34.9%	33.7%	111%	97.3%	88.2%	77.6%	17.8%	1.14 µM	> 10 µM	0.365 µM	0.0124 µM	1.59 µM
c1ccc2cc(C3=NCCN3)ncc2c1 [BU226]	0	0	0	0	0	96.6%	97.1%	96.5%	94.6%	98.7%	105%	108%	99.7%	106%	100%	103%	108%	94.3%	97.7%	101%	112%	97.5%	97%	97.4%	91.8%	102%	95.7%	86.1%	103%	104%	> 10 µM	> 10 µM	> 10 µM	> 10 µM	> 10 µM
CC(C)(C)c1cc(C=C(C#N)C#N)cc(Br)c1O [AG-1024]	0	0	1.7	0	0.3	102%	96.8%	98.1%	94.8%	92.4%	105%	106%	102%	96.4%	99.2%	98.8%	96.8%	101%	93.3%	77.4%	104%	92.4%	92%	87.8%	100%	102%	110%	109%	119%	79.8%	> 10 µM	> 10 µM	> 10 µM	> 10 µM	> 10 µM
C/C(O)=C(\C#N)C(=O)Nc1cc(Br)ccc1Br [LFM-A13]	0	0	0	0	0	112%	80.5%	99%	96.3%	105%	102%	103%	97.3%	104%	96.4%	99.6%	99.5%	90.1%	100%	92.1%	92.8%	99.6%	103%	100%	94.7%	105%	99.7%	99.5%	99%	101%	> 10 µM	> 10 µM	> 10 µM	> 10 µM	> 10 µM

Source: the supplement of paper PMC13380429
